According to paper PMC6413125 (International Journal of Molecular Sciences, 2019):

Experiments:
Format in all cases: biochemical
[1] = biological target: T1, Aβ21–40 (Homo sapiens, UniProt P05067); experiment: ESI-MS adducts ([…] and […]); IC50 from ThT aggregation assay
T1 construct: gene APP

[2] = biological target: T2, Yeast Prion Protein Sup35p (Sup35p7–13) (Saccharomyces cerevisiae, UniProt P05453)
T2 construct: gene SUP35

[3] = biological target: T3, nucleophosmin 1 (NPM1_264–277) (Homo sapiens, UniProt P06748); experiment: ESI-MS adducts; IC50 from ThT aggregation assay; CD
T3 construct: gene NPM1; helix H2 of C-terminal domain, residues 264–277 ([…])

T1 sequence (P05067 692-711): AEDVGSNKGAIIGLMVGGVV

Q: Which results are given for CSC1=[S+][Pt-2]([Cl])([S+](C)(C)=O)[O]C(c2cccc(O)c2)=C1 (stereo not drawn) [compound 1, 1]?
A: IC50 [1]: 19.9 ± 1.6 µM; IC50 [2]: 55 ± 1.12 µM; IC50 [3]: 62.3 ± 1.3 µM
